Key:
wheat = experiment: Test B pre/postemergence wheat; format: in vivo, Triticum aestivum
Method in brief: (§1)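 Herbicidal effect was estimated by eye on a ten-point control scale after plants spent twelve to sixteen days in a greenhouse following soil or foliar treatment. Foliar sprays targeted plants at one to four leaves; all doses were formulated in a non-phytotoxic solvent with surfactant.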

giant foxtail = experiment: Test B pre/postemergence giant foxtail; format: in vivo, Setaria faberii
Method in brief: as §1

cocklebur = experiment: Test B pre/postemergence cocklebur; format: in vivo, Xanthium strumarium
Method in brief: as §1

pigweed = experiment: Test B pre/postemergence pigweed; format: in vivo, Amaranthus retroflexus
Method in brief: as §1

corn = experiment: Test B pre/postemergence corn; format: in vivo, Zea mays
Method in brief: as §1

morningglory = experiment: Test B pre/postemergence morningglory; format: in vivo, Ipomoea hederacea
Method in brief: as §1

soybean = experiment: Test B pre/postemergence soybean; format: in vivo, Glycine max
Method in brief: as §1

crabgrass = experiment: Test B pre/postemergence crabgrass; format: in vivo, Digitaria sanguinalis
Method in brief: as §1

duck salad = experiment: Test B flood test duck salad; format: in vivo, Heteranthera limosa
Method in brief: (§2)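 Each value is a visual injury score relative to controls, with 10 meaning complete control and 0 no effect. Evaluation took place twelve to sixteen days after the 2-leaf-stage plants were treated and kept in the greenhouse.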

velvetleaf = experiment: Test B pre/postemergence velvetleaf; format: in vivo, Abutilon theophrasti
Method in brief: as §1

sugar beet = experiment: Test B pre/postemergence sugar beet; format: in vivo, Beta vulgaris
Method in brief: as §1

bamyardgrass = experiment: Test B flood test barnyardgrass; format: in vivo, Echinochloa crus-galli
Method in brief: as §2

rice = experiment: Test B flood test rice; format: in vivo, Oryza sativa
Method in brief: as §2

wild oat = experiment: Test B pre/postemergence wild oat; format: in vivo, Avena fatua
Method in brief: as §1

purple nutsedge = experiment: Test B pre/postemergence purple nutsedge; format: in vivo, Cyperus rotundus
Method in brief: as §1

rape = experiment: Test B pre/postemergence rape; format: in vivo, Brassica napus
Method in brief: as §1

[1] = Postemergence, Rate 62 g/ha, scale 0 to 10, 0 is no effect, 10 is complete control
[2] = Postemergence, Rate 250 g/ha, scale 0 to 10, 0 no effect, 10 complete control
[3] = Preemergence, Rate 62 g/ha, scale 0 to 10, 0 is no effect, 10 is complete control
[4] = Preemergence, Rate 125 g/ha, scale 0 to 10 (0 no effect, 10 complete control)
[5] = Preemergence, Rate 250 g/ha, scale of 0 to 10 where 0 is no effect and 10 is complete control
[6] = Preemergence, Rate 500 g/ha, scale 0 (no effect) to 10 (complete control)
[7] = Rate 125 g/ha, Postemergence, scale 0 to 10, 0 no effect, 10 complete control
[8] = Rate 500 g/ha, Postemergence, 0 to 10 scale (0 no effect, 10 complete control)
[9] = Rate 125 g/ha, Postemergence section (flood test species), scale 0 to 10, 0 no effect, 10 complete control
[10] = Rate 500 g/ha, Postemergence section of Table B, 0 to 10 scale (0 no effect, 10 complete control)
[11] = flood test, listed under Postemergence, Rate 250 g/ha, scale 0 to 10, 0 no effect, 10 complete control

Cc1ccccc1-n1c(=O)on(C(=O)N(c2ccc(Cl)cc2)C(C)C)c1=O [Compound 41]
Wheat plant response rating (wheat; [1]): 0 | Wheat plant response rating (wheat; [2]): 0 | Plant response rating, Wheat (wheat; [3]): 0 | Plant response rating, Wheat (wheat; [4]): 0 | Plant response rating, Wheat (wheat; [5]): 0 | Wheat plant response rating (wheat; [6]): 0 | Wheat plant response rating (wheat; [7]): 0 | Giant foxtail plant response rating (giant foxtail; [1]): 0 | Giant foxtail plant response rating (giant foxtail; [2]): 1 | Plant response rating, Giant foxtail (giant foxtail; [3]): 4 | Plant response rating, Giant foxtail (giant foxtail; [4]): 9 | Plant response rating, Giant foxtail (giant foxtail; [5]): 10 | Giant foxtail plant response rating (giant foxtail; [6]): 10 | Giant foxtail plant response rating (giant foxtail; [7]): 0 | Giant foxtail plant response rating (giant foxtail; [8]): 1 | Cocklebur plant response rating (cocklebur; [1]): 0 | Cocklebur plant response rating (cocklebur; [2]): 1 | Plant response rating, Cocklebur (cocklebur; [3]): 0 | Plant response rating, Cocklebur (cocklebur; [4]): 0 | Plant response rating, Cocklebur (cocklebur; [5]): 0 | Cocklebur plant response rating (cocklebur; [6]): 0 | Cocklebur plant response rating (cocklebur; [7]): 0 | Cocklebur plant response rating (cocklebur; [8]): 3 | Redroot pigweed plant response rating (pigweed; [1]): 0 | Redroot pigweed plant response rating (pigweed; [2]): 3 | Plant response rating, Redroot pigweed (pigweed; [3]): 0 | Plant response rating, Redroot pigweed (pigweed; [4]): 1 | Plant response rating, Redroot pigweed (pigweed; [5]): 1 | Redroot pigweed plant response rating (pigweed; [6]): 7 | Redroot pigweed plant response rating (pigweed; [7]): 0 | Redroot pigweed plant response rating (pigweed; [8]): 5 | Corn plant response rating (corn; [1]): 0 | Corn plant response rating (corn; [2]): 0 | Plant response rating, Corn (corn; [3]): 0 | Plant response rating, Corn (corn; [4]): 0 | Plant response rating, Corn (corn; [5]): 0 | Corn plant response rating (corn; [6]): 0 | Corn plant response rating (corn; [7]): 0 | Corn plant response rating (corn; [8]): 0 | Morningglory plant response rating (morningglory; [1]): 1 | Morningglory plant response rating (morningglory; [2]): 2 | Plant response rating, Morningglory (morningglory; [3]): 0 | Plant response rating, Morningglory (morningglory; [4]): 0 | Plant response rating, Morningglory (morningglory; [5]): 0 | Morningglory plant response rating (morningglory; [6]): 0 | Morningglory plant response rating (morningglory; [7]): 2 | Morningglory plant response rating (morningglory; [8]): 6 | Soybean plant response rating (soybean; [1]): 3 | Soybean plant response rating (soybean; [2]): 4 | Plant response rating, Soybean (soybean; [3]): 0 | Plant response rating, Soybean (soybean; [4]): 0 | Plant response rating, Soybean (soybean; [5]): 0 | Soybean plant response rating (soybean; [6]): 0 | Soybean plant response rating (soybean; [7]): 3 | Crabgrass plant response rating (crabgrass; [1]): 0 | Crabgrass plant response rating (crabgrass; [2]): 5 | Plant response rating, Crabgrass (crabgrass; [3]): 3 | Plant response rating, Crabgrass (crabgrass; [4]): 4 | Plant response rating, Crabgrass (crabgrass; [5]): 8 | Crabgrass plant response rating (crabgrass; [6]): 10 | Crabgrass plant response rating (crabgrass; [7]): 1 | Crabgrass plant response rating (crabgrass; [8]): 7 | Ducksalad plant response rating (duck salad; [1]): 0 | Ducksalad plant response rating (duck salad; [9]): 0 | Ducksalad plant response rating (duck salad; [10]): 0 | Ducksalad plant response rating (duck salad; [11]): 0 | Velvetleaf plant response rating (velvetleaf; [1]): 0 | Velvetleaf plant response rating (velvetleaf; [2]): 0 | Plant response rating, Velvetleaf (velvetleaf; [3]): 0 | Plant response rating, Velvetleaf (velvetleaf; [4]): 0 | Plant response rating, Velvetleaf (velvetleaf; [5]): 0 | Velvetleaf plant response rating (velvetleaf; [6]): 0 | Velvetleaf plant response rating (velvetleaf; [7]): 0 | Sugarbeets plant response rating (sugar beet; [1]): 0 | Sugarbeets plant response rating (sugar beet; [2]): 0 | Plant response rating, Sugarbeets (sugar beet; [3]): 0 | Plant response rating, Sugarbeets (sugar beet; [4]): 0 | Plant response rating, Sugarbeets (sugar beet; [5]): 0 | Sugarbeets plant response rating (sugar beet; [6]): 0 | Sugarbeets plant response rating (sugar beet; [7]): 0 | Barnyardgrass plant response rating (bamyardgrass; [1]): 0 | Barnyardgrass plant response rating (bamyardgrass; [9]): 0 | Barnyardgrass plant response rating (bamyardgrass; [10]): 0 | Barnyardgrass plant response rating (bamyardgrass; [11]): 0 | Rice plant response rating (rice; [1]): 0 | Rice plant response rating (rice; [9]): 0 | Rice plant response rating (rice; [10]): 0 | Rice plant response rating (rice; [11]): 0 | Wild oats plant response rating (wild oat; [1]): 0 | Wild oats plant response rating (wild oat; [2]): 0 | Plant response rating, Wild oats (wild oat; [4]): 0 | Plant response rating, Wild oats (wild oat; [5]): 0 | Wild oats plant response rating (wild oat; [6]): 4 | Wild oats plant response rating (wild oat; [7]): 0 | Nutsedge plant response rating (purple nutsedge; [1]): 0 | Nutsedge plant response rating (purple nutsedge; [2]): 0 | Plant response rating, Nutsedge (purple nutsedge; [3]): 0 | Plant response rating, Nutsedge (purple nutsedge; [4]): 0 | Plant response rating, Nutsedge (purple nutsedge; [5]): 0 | Nutsedge plant response rating (purple nutsedge; [6]): 0 | Nutsedge plant response rating (purple nutsedge; [7]): 0 | Nutsedge plant response rating (purple nutsedge; [8]): 0 | Rape plant response rating (rape; [1]): 0 | Rape plant response rating (rape; [2]): 0 | Plant response rating, Rape (rape; [3]): 0 | Plant response rating, Rape (rape; [4]): 0 | Plant response rating, Rape (rape; [5]): 0 | Rape plant response rating (rape; [6]): 0 | Rape plant response rating (rape; [7]): 0 | Rape plant response rating (rape; [8]): 0

Source: patent publication US6737383B1, “Herbicidal oxadiazolidines” (priority 1999, dated 2004)
